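Cultured in 96-well plates, cells were exposed to test compound for 48 hours across five concentrations. GI50 is the concentration that inhibits growth by half. Definition used: TGI = concentration required for complete inhibition of growth.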
Experiments:
Experiment in all cases: NCI-60 cell line screen, 48 h
HCT-15 colon = test system: HCT-15 colon
SNB-19 CNS = test system: SNB-19 CNS
786-0 renal = test system: 786-0 renal
MDA-MB-435 = test system: MDA-MB-435
CAKI-1 renal = test system: CAKI-1 renal
OVCAR-4 ovarian = test system: OVCAR-4 ovarian
SR leukemia = test system: SR leukemia
SF-539 CNS = test system: SF-539 CNS
NCI-H23 lung = test system: NCI-H23 lung
CCRF-CEM leukemia = test system: CCRF-CEM leukemia

SMILES | GI50 (HCT-15 colon) [µM] | TGI (HCT-15 colon) [µM] | GI50 (SNB-19 CNS) [µM] | TGI (SNB-19 CNS) [µM] | GI50 (786-0 renal) [µM] | TGI (786-0 renal) [µM] | GI50 (MDA-MB-435) [µM] | TGI (MDA-MB-435) [µM] | GI50 (CAKI-1 renal) [µM] | TGI (CAKI-1 renal) [µM] | TGI (OVCAR-4 ovarian) [µM] | GI50 (SR leukemia) [µM] | TGI (SR leukemia) [µM] | GI50 (SF-539 CNS) [µM] | TGI (SF-539 CNS) [µM] | GI50 (NCI-H23 lung) [µM] | TGI (NCI-H23 lung) [µM] | GI50 (CCRF-CEM leukemia) [µM] | TGI (CCRF-CEM leukemia) [µM] | GI50 (OVCAR-4 ovarian) [µM]
C=CCN=C(N/N=C/c1ccc([N+](=O)[O-])o1)NS(=O)(=O)c1cc(C(=O)Nc2ccc(Cl)cc2)c(Cl)cc1SC | 2.97 | 13.5 | > 100 | > 100 | 6.94 | > 100 | 2.88 | 7.05 | 8.55 | > 100 | > 34.1 | 1.28 | > 23.6 | 5.92 | > 100 | > 62.7 | > 100 | 4.81 | > 100 | 
O=C1NNC2(C(=O)N1)c1ccccc1-c1ccccc12 |  | > 10 |  | > 10 |  | > 10 |  | > 10 |  | > 10 | > 10 |  | > 10 |  | > 10 |  | > 10 |  | > 10 | 
COc1cc(OC)c2nc(C)c3c(c2c1)SCC3 |  | > 100 |  | 34.8 |  | 35.4 |  | 58.3 |  | 70.9 | 38.5 |  | 52.2 |  | 35.8 |  | 58.6 |  | > 100 | 
Cc1cc(NCCCN(C)C)c2ccc3c(ccc4c(NCCCN(C)C)cc(C)nc43)c2n1 | 0.191 | 0.543 | 0.181 | 0.514 | 0.202 | 0.506 | 0.226 | 0.539 | 0.217 | 0.673 | 0.508 | 0.354 | > 100 | 0.193 | 0.487 | 0.23 | 0.673 | 0.158 | 0.478 | 0.162
COc1cc(C(=O)c2c(-c3ccccc3)oc3c(OC)cccc23)cc(OC)c1OC | 0.0444 | > 100 | 0.0789 | > 100 | 0.073 | 3.1 | 0.0216 | 0.0577 | 0.0474 | 21.9 | > 100 | 0.0363 | > 100 | 0.0293 | 0.173 | 0.106 | 16.8 | 0.0532 | > 100 | 
O=C1/C(=C/c2ccccc2)CN(C(=O)CCN2CCOCC2)C/C1=C\c1ccccc1 |  | 4.96 |  | 14.5 |  | 3.98 |  | 3.58 |  | 23 | 8.38 |  | 4.04 |  | 4.2 |  | 6.13 |  | 9.81 | 
C#CC#CC#CC#CC#CC#CC#CC#CCC1OCC(COC(=O)O[C@@H](C(=O)O[C@H]2C[C@@]3(O)[C@@H](OC(=O)c4ccccc4)[C@@H]4[C@]5(OC(C)=O)CO[C@@H]5C[C@H](O)[C@@]4(C)C(=O)[C@H](OC(C)=O)C(=C2C)C3(C)C)[C@@H](NC(=O)c2ccccc2)c2ccccc2)O1 (stereo partly drawn) | > 9.51 | > 33.3 | 0.612 | > 33.3 | 2.15 | > 33.3 | 0.0167 | 0.0434 | 0.446 | > 33.3 | > 33.3 | 0.0991 | > 33.3 | 0.156 | 1.97 | 0.465 | > 33.3 | 0.191 | > 33.3 | > 33.3
O=c1cnn(C2OC(CO)C(O)C2O)c(=S)[nH]1 (stereo not drawn) |  | > 100 |  | > 100 |  | > 100 |  | > 100 |  | > 100 | > 100 |  | 19.2 |  | > 100 |  | > 100 |  | > 100 | 

From PubChem BioAssay (NCI)
